The record followed here is patent publication US5952321A, “Substituted azetidinones as anti-inflammatory and antidegenerative agents” (Merck & Co., Inc., priority 1996, dated 1999).

In this test the target is T1, Human Polymorphonuclear Leukocyte Elastase (Homo sapiens, UniProt P08246).
T1 sequence (P08246 30-267): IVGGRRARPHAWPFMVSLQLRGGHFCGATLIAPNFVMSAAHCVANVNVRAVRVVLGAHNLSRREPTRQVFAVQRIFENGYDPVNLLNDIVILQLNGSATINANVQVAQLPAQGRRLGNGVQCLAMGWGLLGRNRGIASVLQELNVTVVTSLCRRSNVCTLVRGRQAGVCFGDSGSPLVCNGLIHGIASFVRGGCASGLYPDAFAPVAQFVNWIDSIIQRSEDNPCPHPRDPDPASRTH
The experiment in a line: Inhibition of human polymorphonuclear leukocyte elastase via hydrolysis of Boc-AAPAN or Boc-AAPVN. It is filed as biochemical. Particulars: pH 7.5, Table I; second order rate constant for inactivation of the enzyme; read-out: Kobs /[I]. The method, boiled down: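 Crude human PMN extract was added to 0.2 mM Boc-AAPAN or Boc-AAPVN substrate solution in 0.05 M TES pH 7.5 containing inhibitor in DMSO; extract volume was adjusted per batch activity. Hydrolysis was followed as ΔOD/min at 410 mμ, after a pre-check for spontaneous hydrolysis. Values are ID50 (μg/ml, 50% inhibition at 2 min), Ki (μM) or kobs/I.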
Turning to `CCC[C@@H](NC(=O)N1C(=O)C(CC)(CC)[C@@H]1Oc1ccc(CN(C)CCOCC)cc1)c1ccc(C)cc1` [R4=Me; R5=CH2 CH2 OEt; R6=H, (4S)-3,3-Diethyl-1-[(R)-α-n-propyl-(4-methyl)benzylaminocarbonyl]-4-[(4-(2-ethoxyethyl)methylaminomethyl)phenoxy]azetidin-2-one], the kinact/KI was found to be 600000 M⁻¹ s⁻¹.

Consider `CCC[C@@H](NC(=O)N1C(=O)C(CC)(CC)[C@@H]1Oc1ccc(CN(C)CCO)cc1)c1ccc(C)cc1` [R4=Me; R5=CH2 CH2 OH; R6=H], for which the kinact/KI stood at 560000 M⁻¹ s⁻¹.

Consider `CCC[C@@H](NC(=O)N1C(=O)C(CC)(CC)[C@@H]1Oc1ccc(C(C)N(C)CCO)cc1)c1ccc(C)cc1` (stereo partly drawn) [R4=Me; R5=CH2 CH2 OH; R6=Me], for which the kinact/KI was 770000 M⁻¹ s⁻¹.

On to `CCC[C@@H](NC(=O)N1C(=O)C(CC)(CC)[C@@H]1Oc1ccc([C@@H](C)N(C)CCOC)cc1)c1ccc(C)cc1` [R4=Me; R5=CH2 CH2 OMe; R6=(R)--Me, (4S)-3,3-diethyl-4-{(R)-4-[1-((2-methoxyethyl)methylamino)ethyl]phenoxy}-1-[(R)-α-n-propyl-(4-methyl)benzylaminocarbonyl]azetidin-2-one], for which the kinact/KI came to 525000 M⁻¹ s⁻¹.

Turning to `CCC[C@@H](NC(=O)N1C(=O)C(CC)(CC)[C@@H]1Oc1ccc([C@H](C)N(C)CCOC)cc1)c1ccc(C)cc1` [R4=Me; R5=CH2 CH2 OMe; R6=(S)--Me, (4S)-3,3-Diethyl-4-{(S)-4-[1-((2-methoxyethyl)methylamino)ethyl]phenoxy}-1-[(R)-α-n-propyl-(4-methyl)benzylaminocarbonyl]azetidin-2-one], the kinact/KI amounted to 515000 M⁻¹ s⁻¹.

Take `CCC[C@@H](NC(=O)N1C(=O)C(CC)(CC)[C@@H]1Oc1ccc(C(CC)N(C)CCOC)cc1)c1ccc(C)cc1` (stereo partly drawn) [R4=Me; R5=CH2 CH2 OMe; R6=Et]: the kinact/KI was determined as 550000 M⁻¹ s⁻¹.

With `CCC[C@@H](NC(=O)N1C(=O)C(CC)(CC)[C@@H]1Oc1ccc(CN(C)CCOC)cc1)c1ccc(C)cc1` [R4=Me; R5=CH2 CH2 OMe; R6=H, (4S)-3,3-Diethyl-1-[(R)-α-n-propyl-(4-methyl)benzylaminocarbonyl]-4-[(4-(2-methoxyethyl)methylaminomethyl)phenoxyl]azetidin-2-one], the kinact/KI was 440000 M⁻¹ s⁻¹.

Consider `CCC[C@@H](NC(=O)N1C(=O)C(CC)(CC)[C@@H]1Oc1ccc(C(C)N(C)CCOC)cc1)c1ccc(C)cc1` (stereo partly drawn) [R4=Me; R5=CH2 CH2 OMe; R6=Me, (4S)-3,3-Diethyl-1-[(R)-α-n-propyl-(4-methyl)benzylaminocarbonyl]-4-[(R,S)-4-((1-(2-methoxyethyl)methylamino)ethyl)phenoxy]azetidin-2-one], for which the kinact/KI amounted to 600000 M⁻¹ s⁻¹.

As to `CCC[C@@H](NC(=O)N1C(=O)C(CC)(CC)[C@@H]1Oc1ccc(CN(C)CCOc2ccccc2)cc1)c1ccc(C)cc1` [R4=Me; R5=CH2 CH2 OPh; R6=H], the kinact/KI was found to be 750000 M⁻¹ s⁻¹.

Take `CCC[C@@H](NC(=O)N1C(=O)C(CC)(CC)[C@@H]1Oc1ccc(CN(C)CCSCC)cc1)c1ccc(C)cc1` [R4=Me; R5=CH2 CH2 SEt; R6=H, (4S)-3,3-diethyl-1-[(R)-α-n-propyl-(4-methyl)benzylaminocarbonyl]-4-[(4-((2-thioethyl)ethyl)methylaminomethyl)phenoxy]azetidin-2-one]: the kinact/KI worked out at 1.05e+06 M⁻¹ s⁻¹.

On to `CCC[C@@H](NC(=O)N1C(=O)C(CC)(CC)[C@@H]1Oc1ccc(CN(C)CCSC)cc1)c1ccc(C)cc1` [R4=Me; R5=CH2 CH2 SMe; R6=H], for which the kinact/KI is 675000 M⁻¹ s⁻¹.

With `CCC[C@@H](NC(=O)N1C(=O)C(CC)(CC)[C@@H]1Oc1ccc(CN(C)CCS(=O)(=O)CC)cc1)c1ccc(C)cc1` [R4=Me; R5=CH2 CH2 SO2 Et; R6=H, (4S)-3,3-Diethyl-1-[(R)-α-n-propyl-(4-methyl)benzylaminocarbonyl]-4-[(4-((2-thioethyl)ethyl)methylaminomethyl)phenoxy]azetidin-2-one. S-dioxide.], the kinact/KI amounted to 1.5e+06 M⁻¹ s⁻¹.
